Test results: article PMC5789824, “A presumed homologue of the regulatory subunits of eIF2B functions as ribose-1,5-bisphosphate isomerase in Pyrococcus horikoshii OT3” (Scientific Reports, 2018)
Like-named read-outs stand apart in the source and are kept apart here.

Legend:
[1] = test system: ribose-1,5-bisphosphate isomerase (R15Pi); set-up: method as in PMID 23065974; settings: result in words; cited from earlier work
[2] = biological target: T1, PH0208 protein (PH0208-WT, PH0208-C135S, PH0208-D204N) (Pyrococcus horikoshii, UniProt O57947, M1V); assay: Co-crystallization or soaking with ribonucleotides (crystal structure complexes); assay type: binding, Pyrococcus horikoshii OT3; settings: for binding of ribonucleotide seen in crystal structure (electron density): co-crystallization or soaking of PH0208-WT, -C135S, -D204N; for preferred molecule at the 'AMP binding site': crystallized in presence of both AMP (1.5 mM) and GMP (4.5 mM)
T1 construct: an N-terminal α-helical domain (residues 1–122) and a C-terminal α-β-α sandwich domain (residues 123–324); made in house; host or cells: Escherichia coli Rosetta (DE3)
T1 sequence (O57947 whole entry M1V, the tested form may be a part): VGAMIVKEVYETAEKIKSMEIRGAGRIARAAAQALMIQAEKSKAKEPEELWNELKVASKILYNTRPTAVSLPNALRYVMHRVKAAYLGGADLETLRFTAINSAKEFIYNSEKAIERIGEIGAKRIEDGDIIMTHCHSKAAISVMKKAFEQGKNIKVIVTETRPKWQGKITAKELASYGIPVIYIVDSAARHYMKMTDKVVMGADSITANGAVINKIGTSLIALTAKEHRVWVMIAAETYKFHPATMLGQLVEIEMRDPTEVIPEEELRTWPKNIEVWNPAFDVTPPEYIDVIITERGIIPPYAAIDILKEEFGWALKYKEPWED
Experimental: To identify the binding site of ribonucleotides, either co-crystallization or soaking of PH0208-WT, PH0208-C135S and PH0208-D204N proteins with AMP, GMP, CMP and TMP was performed. […] The binding site of AMP lies at the interface of three monomers (chain A, B and D) of the hexameric protein (Fig. 4a). The side chains of Arg124 and Asp290 of chain A undergoes a shift towards AMP to form hydrogen bond with the O2′ and O3′ oxygen atoms of the ribose sugar (Fig. 4b). Another two residues of chain A, Arg229 and Trp231 are involved in interacting with the phosphate groups of the AMP molecule. The side chain atoms of Asn209 and the backbone atoms of Val251 of chain B forms hydrogen bond with the oxygen (O2′ and O3′) atoms of the ribose sugar and the nitrogen (N1 and N6) atom of the adenosine base ring, respectively. Along with chain A and chain B, AMP also binds to a third protomer of the hexameric protein through interactions involving the side chain atoms of Arg190 and Lys194 of chain D (Fig. 4c). Thus, one AMP molecule positions itself to hold three protomers of the hexamer. All the amino acid residues of PH0208 protein forming hydrogen bond with AMP are found to be absolutely conserved in R15Pi enzymes. […] In case of both the mutants, PH0208-C135S and PH0208-D204N, AMP occupies a similar position to that of PH0208-WT protein with the major interactions arising from the three subunits of the hexamer. Similar to PH0208-WT, the adenosine base ring interacts with Val251 of chain B, the oxygen atoms of ribose sugar interacts with Arg124 & Asp290 of chain A and Asn209 of chain B while the phosphate group forms hydrogen bond with Arg229 & Trp231 of chain A and Arg190 & Lys194 of chain D of the mutant proteins (Fig. 4d–f).
To obtain crystals of PH0208-WT, an initial screening was performed by mixing 2 μl of protein and 2 μl of crystallization condition available in Crystal Screen, Crystal Screen 2 and PEG/Ion kits from Hampton research at 277 K and 293 K by the microbatch-under-oil technique. Further refinement of one of the conditions containing 2.0 M NaCl and 10% (w/v) PEG 6000 using hanging-drop vapor-diffusion technique in 24-well plate was performed to obtain better crystals. However, crystals of the apo form of PH0208-WT protein diffracted very poorly. To obtain diffraction quality crystals, the substrate (R15P) was added to the crystallization drop which was then equilibrated against 500 μl of 0.7 M NaCl and 3% PEG 6000. Yet, the crystals formed diffracted to a resolution of ~7 Å, only. […] For co-crystallization of PH0208-WT, PH0208-C135S and PH0208-D204N with different ligands, the final protein concentration was kept at 9.5, 9.0 and 7.0 mg ml^−1, respectively in 20 mM Tris-HCl pH 8.0 and 150 mM KCl. The final concentration of R15P in the crystallization drops were 8.33–9 mM while that of AMP, GMP, CMP and TMP were 1.66, 4.5 & 9, 1.66 and 9 mM, respectively. In case of ligand soaking, the concentration of AMP was kept at 5 mM. For obtaining the crystals of ligand bound PH0208-C135S and PH0208-D204N complexes, the reservoir buffer was further supplemented with 0.1–0.3% of low melting (LM) agarose. All the crystals were obtained in hanging-drop vapor-diffusion method at 20 °C within a period of 2–7 days.

[3] = biological target: T2, PH0208-D204N mutant protein (Pyrococcus horikoshii, UniProt O57947, D204N); assay: biochemical; assay type: binding, Pyrococcus horikoshii OT3
T2 construct: an N-terminal α-helical domain (residues 1–122) and a C-terminal α-β-α sandwich domain (residues 123–324); made in house; host or cells: Escherichia coli Rosetta (DE3)
T2 sequence (O57947 whole entry D204N, the tested form may be a part): as the sequence (O57947 whole entry M1V, the tested form may be a part) above, with V1M, D204N counted along it
Experimental: (§1) To determine the binding affinity of the substrate (R15P) and the product (RuBP) to the protein PH0208, isothermal titration calorimetry (ITC) experiments were performed. Since binding of the substrate to the PH0208-WT protein triggers a conformational change along with the formation of the product, the heat change measured during the ITC experiment would reflect the sum of heat generated and absorbed during each event. As a result, the binding affinity (Kd) of PH0208 and R15P/RuBP obtained would be delusional. Therefore, binding affinity was studied using the mutant proteins, PH0208-C135S and PH0208-D204N in which case the heat change would be solely due to ligand binding.
(§2) ITC experiments of mutant proteins (PH0208-C135S, PH0208-C135A and PH0208-D204N) with the substrate (R15P) and the product (RuBP) molecules were measured at 25 °C using MicroCal iTC200. Before ITC experiments, the proteins were dialyzed extensively in buffer (20 mM Tris-HCl pH 8.0 and 150 mM KCl) and the equilibrated buffer was subsequently used to prepare ligand solutions to minimize the heat of dilution effects. Each titration consisted of a preliminary injection of 0.4 μl of 7.5–8.0 mM of R15P and RuBP followed by 24 injections of 1.2 μl (spacing 120 s) into the sample cell filled with protein at a final concentration of 75–80 μM. During titration, the syringe rotated at a speed of 450 rpm to facilitate adequate mixing of the reactants. Data were analyzed using MicroCal ORIGIN software and baselines were subtracted from data to obtain accurate heat exchanges.

[4] = biological target: T3, PH0208-C135S mutant protein (Pyrococcus horikoshii, UniProt O57947, C135S); assay: biochemical; assay type: binding, Pyrococcus horikoshii OT3
T3 construct: an N-terminal α-helical domain (residues 1–122) and a C-terminal α-β-α sandwich domain (residues 123–324); made in house; host or cells: Escherichia coli Rosetta (DE3)
T3 sequence (O57947 whole entry C135S, the tested form may be a part): as the sequence (O57947 whole entry M1V, the tested form may be a part) above, with V1M, C135S counted along it
Experimental: as §1, §2

[5] = biological target: T4, PH0208-C135A mutant protein (Pyrococcus horikoshii, UniProt O57947, C135A); assay: biochemical; assay type: binding, Pyrococcus horikoshii OT3
T4 construct: an N-terminal α-helical domain (residues 1–122) and a C-terminal α-β-α sandwich domain (residues 123–324); made in house; host or cells: Escherichia coli Rosetta (DE3)
T4 sequence (O57947 whole entry C135A, the tested form may be a part): as the sequence (O57947 whole entry M1V, the tested form may be a part) above, with V1M, C135A counted along it
Experimental: Henceforth, Cys135 was mutated to alanine (PH0208-C135A) to understand its role in ligand (R15P/RuBP) binding.
as §2

## Nc1ncnc2c1ncn2[C@@H]1O[C@H](COP(=O)(O)O)[C@@H](O)[C@H]1O [AMP, adenosine 5′-monophosphate]
[1]
  effect on enzymatic activity / catalytic efficiency of R15Pi: activator of R15Pi
[2]
  binding of ribonucleotide seen in crystal structure (electron density): bound to the proteins
  preferred molecule at the 'AMP binding site': AMP outcompete GMP and binds to the ‘AMP binding site’

## Nc1ncnc2c1ncn2[C@@H]1O[C@H](COP(=O)(O)OP(=O)(O)OP(=O)(O)O)[C@@H](O)[C@H]1O [ATP, adenosine 5ʹ-triphosphate]
[1]
  effect on enzymatic activity / catalytic efficiency of R15Pi: inability

## Nc1ccn([C@@H]2O[C@H](COP(=O)(O)O)[C@@H](O)[C@H]2O)c(=O)n1 [CMP, cytosine 5′-monophosphate]
[1]
  effect on enzymatic activity / catalytic efficiency of R15Pi: neither cytosine 5′-monophosphate (CMP) nor thymidine 5′-monophospahte (TMP) possesses the ability to increase the enzymatic activity
[2]
  binding of ribonucleotide seen in crystal structure (electron density): no electron density

## Nc1nc2c(ncn2[C@@H]2O[C@H](COP(=O)(O)O)[C@@H](O)[C@H]2O)c(=O)[nH]1 [GMP, guanosine 5′-monophosphate]
[1]
  effect on enzymatic activity / catalytic efficiency of R15Pi: elevates the activity of R15Pi, though to a lesser extent as compared to AMP
[2]
  binding of ribonucleotide seen in crystal structure (electron density): bound to the proteins
  preferred molecule at the 'AMP binding site': GMP binds to the ‘GMP binding loop’

## O=P(O)(O)OC[C@H]1OC(OP(=O)(O)O)[C@H](O)[C@@H]1O (stereo partly shown) [R15P, ribose-1,5-bisphosphate]
[3]; ITC, 25 °C
  Ka: 99100 ± 2630 M⁻¹
  T∆S: 7.77 kcal/mol
  ∆G: -6.8 kcal/mol
  ∆H: 0.981 ± 0.049 kcal/mol
[3]; ITC, 25 °C, read-out: Kd
  Kd: 10 µM
[4]; ITC, 25 °C
  Ka: 72000 ± 7130 M⁻¹
  T∆S: 7.03 kcal/mol
  ∆G: -6.6 kcal/mol
  ∆H: 0.403 ± 0.013 kcal/mol
[4]; ITC, 25 °C, single-site model, '(fixed)' = fixed in fit
  N: 1.17 ± 0.03
[4]; ITC, 25 °C, read-out: Kd
  Kd: 13.8 µM
[5]; ITC, 25 °C, result in words
  interaction with PH0208-C135A (ITC): did not show any interaction

## O=C(COP(=O)(O)O)[C@H](O)[C@H](O)COP(=O)(O)O [RuBP, ribulose-1,5-bisphosphate]
[3]
  Kd: 7.2 µM
[3]; ITC, 25 °C
  Ka: 139000 ± 12000 M⁻¹
  T∆S: 4.05 kcal/mol
  ∆G: -7.0 kcal/mol
  ∆H: -2.95 ± 0.06 kcal/mol
[4]
  Kd: 7.5 µM
[4]; ITC, 25 °C
  Ka: 133000 ± 72100 M⁻¹
  T∆S: 2.24 kcal/mol
  ∆G: -6.98 kcal/mol
  ∆H: -4.74 ± 0.39 kcal/mol
[5]
  Kd: 309 µM
[5]; ITC, 25 °C
  Ka: 3.23 × 10^3 ± 299 M^−1
  T∆S: -4.14 kcal/mol
  ∆G: -4.8 kcal/mol
  ∆H: -8.94 ± 0.40 kcal/mol

## Nc1ncnc2c1ncn2[C@@H]1O[C@H](CSCC[C@H](N)C(=O)O)[C@@H](O)[C@H]1O [SAH, S-adenosyl homocysteine]
[1]
  effect on enzymatic activity / catalytic efficiency of R15Pi: inability

## C[S+](CC[C@H](N)C(=O)[O-])C[C@H]1O[C@@H](n2cnc3c(N)ncnc32)[C@H](O)[C@@H]1O (stereo partly shown) [SAM, S-adenosyl methionine]
[1]
  effect on enzymatic activity / catalytic efficiency of R15Pi: inability

## Cc1cn([C@H]2C[C@H](O)[C@@H](COP(=O)(O)O)O2)c(=O)[nH]c1=O [TMP, thymidine 5′-monophospahte]
[1]
  effect on enzymatic activity / catalytic efficiency of R15Pi: neither cytosine 5′-monophosphate (CMP) nor thymidine 5′-monophospahte (TMP) possesses the ability to increase the enzymatic activity
[2]
  binding of ribonucleotide seen in crystal structure (electron density): no electron density
